Experimental data published in the OligoGym collection.
After the bases stand the sugars from the 5' end (letter, count) and the backbone: PS all phosphorothioate, else s phosphorothioate and o phosphodiester by linkage. Methylation of C is not given here. l = locked nucleic acid (LNA); d = 2'-deoxy (DNA)

Molecular target: SNHG14
Details: ASO
[1] = Mouse Primary Neuronal Cell, 0.005 µM

Sequence	target mRNA inhibition (Human Neuronal Cell, 0.2 µM)	target mRNA inhibition (Human Neuronal Cell, 1 µM)	target mRNA inhibition (Human Neuronal Cell, 7.5 µM)	other results
CCTACATCTCATACTTGC (sugars l2 d13 l3, PS)				target mRNA inhibition [1]: 96.8%
CCTACATCTCATACTTGC (sugars l3 d12 l3, PS)	-39%	-21%		target mRNA inhibition (Human Neuronal Cell, 5 µM): -27%
CCTCTGACAACCATTA (sugars l4 d10 l2, PS)	30%	31%		
CCTTAATCTGTATCAC (sugars l3 d10 l3, PS)	38%	52%		
CCTTCCCTTTGATAACA (sugars l2 d12 l3, PS)	43%	62%		
CGAATCTTGACATACAGG (sugars l3 d12 l3, PS)	8%	19%		target mRNA inhibition (Human Neuronal Cell, 5 µM): 14%
CTAACTGTTTCTCAATT (sugars l3 d11 l3, PS)	29%	32%		
CTAATCCTATTCCAAC (sugars l2 d10 l4, PS)	33%	49%		
CTAATGCAATAACCCA (sugars l2 d10 l4, PS)	45%	34%		
CTACATCTCATACTTGC (sugars l3 d11 l3, PS)	-4%	-27%		target mRNA inhibition (Human Neuronal Cell, 5 µM): 1%; target mRNA inhibition [1]: 94.6%
CTATTCAATAAACTAAACA (sugars l4 d13 l2, PS)	-6%	-9%		
CTCAAAGATCATTCTCA (sugars l1 d2 l1 d7 l6, PS)			16%	
CTCAAAGATCATTCTCA (sugars l3 d10 l1 d1 l2, PS)			61%	
CTCAAAGATCATTCTCA (sugars ldldldddddddlldll, PS)			65%	
CTCATCCCTCCAAGAAA (sugars l4 d11 l2, PS)	-3%	-15%		target mRNA inhibition (Human Neuronal Cell, 5 µM): -9%; target mRNA inhibition [1]: 90.9%
CTCATTTACATTATTATT (sugars l4 d12 l2, PS)	34%	44%		
CTCCATATTTAAATCC (sugars l4 d10 l2, PS)	8%	21%		
CTCCTTTATGACTCCA (sugars l3 d11 l2, PS)	50%	56%		
CTCCTTTATGACTCCAA (sugars l4 d11 l2, PS)	41%	59%		
CTCTAATCCTATTCCA (sugars l3 d10 l3, PS)	50%	58%		
CTCTACAACAGTCCCA (sugars l3 d11 l2, PS)	53%	51%		
CTCTGCAATACACCAA (sugars l2 d10 l4, PS)	54%	55%		

Sequence	target mRNA inhibition (Human Neuronal Cell, 0.2 µM)	target mRNA inhibition (Human Neuronal Cell, 1 µM)	target mRNA inhibition (Human Neuronal Cell, 7.5 µM)	other results
CTCTTTAGATTCATCC (sugars l4 d10 l2, PS)	56%	48%		
CTCTTTGTCAAATACT (sugars l4 d10 l2, PS)	33%	13%		
CTGCTTAATTATATCA (sugars l4 d10 l2, PS)	35%	38%		
CTGTATACACCATCCCA (sugars l1 d3 l1 d10 l2, PS)			65%	
CTGTATACACCATCCCA (sugars l1 d10 l1 d3 l2, PS)			54%	
CTGTATACACCATCCCA (sugars ldddlddddddddldll, PS)			68%	
CTGTATACACCATCCCA (sugars ldldlddddddddddll, PS)			61%	
CTGTTTATACCCTTTCCA (sugars l1 d4 l1 d10 l2, PS)			58%	
CTGTTTATACCCTTTCCA (sugars l1 d12 l1 d2 l2, PS)			58%	
CTTCACACCTATTATATA (sugars l2 d12 l4, PS)	7%	32%		
CTTTAATGCTTCTAAC (sugars l2 d10 l4, PS)	-3%	26%		
CTTTACTCTGCAATACA (sugars l2 d11 l4, PS)	49%	59%		
CTTTCCATTTATTTCCAT (sugars l3 d12 l3, PS)	43%	51%		
CTTTCCATTTATTTCCATT (sugars l1 d3 l1 d11 l3, PS)			58%	
CTTTCCATTTATTTCCATT (sugars llddldddddddddlddll, PS)			61%	
CTTTCCATTTATTTCCATTT (sugars l1 d13 l1 d3 l2, PS)			35%	
CTTTCCATTTATTTCCATTT (sugars ldldddldddddddddldll, PS)			54%	
GAAAATCTCAACTACCATT (sugars l3 d1 l1 d10 l4, PS)			57%	
GAAAATCTCAACTACCATT (sugars l4 d10 l2 d1 l2, PS)			60%	
GAAAATCTCAACTACCATT (sugars ldllldddddddlddllll, PS)			57%	
GAAAATCTCAACTACCATT (sugars llddldddddddlddddll, PS)			52%	
GAAACTATTACTCCTA (sugars l2 d10 l4, PS)	44%	55%		

Sequence	target mRNA inhibition (Human Neuronal Cell, 0.2 µM)	target mRNA inhibition (Human Neuronal Cell, 1 µM)	target mRNA inhibition (Human Neuronal Cell, 7.5 µM)	other results
GAATCTTCTAATTCCAC (sugars l2 d11 l4, PS)	29%	31%		
GACCACACTTTCTACC (sugars l2 d12 l2, PS)	18%	42%		
GACCACACTTTCTACCA (sugars l2 d13 l2, PS)	27%	48%		
GACCTCAATACTCTAC (sugars l4 d10 l2, PS)	37%	44%		
GACCTCAATACTCTACT (sugars l3 d11 l3, PS)	49%	58%		
GATCATTCTCAACAATTA (sugars l2 d1 l2 d8 l5, PS)			26%	
GATCATTCTCAACAATTA (sugars ldllldddddddldldll, PS)			35%	
GATCATTCTCAACAATTAA (sugars lldlllddddddlllddll, PS)			-2%	
GCAACATTATTAACCACCT (sugars lddldldddddddddddll, PS)			60%	
GCACATTCTTTCTATAC (sugars l1 d1 l3 d9 l3, PS)			50%	
GCACATTCTTTCTATACC (sugars l1 d15 l2, PS)			25%	
GCACATTCTTTCTATACC (sugars ldldlldddddddlddll, PS)			54%	
GCACATTCTTTCTATACC (sugars ldldlldddddddldlll, PS)			51%	
GCATTAGGCACATTACAT (sugars l3 d12 l3, PS)	-8%	2%		target mRNA inhibition (Human Neuronal Cell, 5 µM): 15%
GCTCACACTAATTATT (sugars l2 d10 l4, PS)	25%	43%		
GCTCCCAAACAACTAA (sugars l2 d12 l2, PS)	36%	72%		
GCTTTTAACCAGAGTGG (sugars l1 d12 l4, PS)			73%	
GTTCTACTATACTTTCCT (sugars l1 d2 l1 d12 l2, PS)			53%	
GTTCTACTATACTTTCCT (sugars l2 d1 l1 d12 l2, PS)			60%	
GTTCTACTATACTTTCCT (sugars lldldlddddddddddll, PS)			63%	
GTTCTACTATACTTTCCTC (sugars lddddldddddddddldll, PS)			55%	
GTTTATACCCTTTCCA (sugars l2 d11 l3, PS)	49%	58%		

Sequence	target mRNA inhibition (Human Neuronal Cell, 0.2 µM)	target mRNA inhibition (Human Neuronal Cell, 1 µM)	target mRNA inhibition (Human Neuronal Cell, 7.5 µM)	other results
GTTTATACCCTTTCCAAT (sugars l1 d2 l1 d12 l2, PS)			61%	
GTTTATACCCTTTCCAAT (sugars l1 d13 l4, PS)			59%	
GTTTATACCCTTTCCAAT (sugars ldddlddddddddldlll, PS)			56%	
GTTTATACCCTTTCCAAT (sugars ldlldddddddddldlll, PS)			63%	
GTTTCCATCTACTATTAA (sugars l3 d1 l1 d9 l4, PS)			55%	
GTTTCCATCTACTATTAA (sugars ldddlldddddddlldll, PS)			53%	
GTTTCCATCTACTATTAA (sugars lllddlddddddldddll, PS)			47%	
GTTTCCATCTACTATTAAT (sugars l1 d2 l2 d12 l2, PS)			62%	
GTTTCCATCTACTATTAAT (sugars ldldddddddddlldddll, PS)			51%	
TAAAATTATTTATACACCA (sugars l3 d1 l2 d9 l4, PS)			59%	
TAAAATTATTTATACACCA (sugars lddlllddddddldlllll, PS)			30%	
TAAAATTATTTATACACCA (sugars lldlldddddddldldlll, PS)			47%	
TAAAATTATTTATACACCA (sugars lllldlddddddllddlll, PS)			31%	
TAAAATTATTTATACACCAT (sugars lldddldddddddldlllll, PS)			46%	
TAAGCTCCATATTTAA (sugars l3 d10 l3, PS)	3%	12%		
TAATCCCATACATCTAT (sugars l2 d11 l4, PS)	50%	61%		
TACACAAATACTTAAATCA (sugars l4 d13 l2, PS)	7%	19%		
TACACTTAATTATACTTCCA (sugars lddddldddddddldlddll, PS)			60%	
TACACTTAATTATACTTCCA (sugars lddldllddddddddlddll, PS)			56%	
TACATATTGTACTTCT (sugars l4 d10 l2, PS)	18%	23%		
TACATCTCATACTTGC (sugars l2 d11 l3, PS)				target mRNA inhibition [1]: 96.5%
